Experimental data: patent US10294202B2, “Pyrrolidinones as herbicides” (FMC Corporation, priority 2013, dated 2019)

Columns and labels:
rice = experiment: Test B flooded paddy test; assay type: in vivo, Oryza sativa; conditions: 500 g ai/ha, Flood; scale of 0 to 100 where 0 is no effect and 100 is complete control
Outline: (§1)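 Treatment was made at the 2-leaf stage by dosing the standing floodwater, kept 3 cm above soil level for the whole test. Greenhouse exposure lasted 13 to 15 days. Response is a visual percent rating relative to controls, where a dash indicates no test result.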

barnyardgrass [1] = experiment: Test B flooded paddy test; assay type: in vivo, Echinochloa crus-galli; conditions: 500 g ai/ha, Flood; scale of 0 to 100 where 0 is no effect and 100 is complete control
Outline: as §1

ryegrass, Italian = experiment: Test A pre-/postemergence herbicide test; assay type: in vivo, Lolium multiflorum
Outline: (§2)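 Greenhouse pot test with pre- and postemergence application of surfactant-containing solvent formulations. Postemergence plants were 2–10 cm, one- to two-leaf stage. Response scored visually after ~10 days, 0 (no effect) to 100 (complete control).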

giant foxtail = experiment: Test A pre-/postemergence herbicide test; assay type: in vivo, Setaria faberii
Outline: as §2

ducksalad = experiment: Test B flooded paddy test; assay type: in vivo, Heteranthera limosa; conditions: 500 g ai/ha, Flood; scale of 0 to 100 where 0 is no effect and 100 is complete control
Outline: as §1

barnyardgrass [2] = experiment: Test A pre-/postemergence herbicide test; assay type: in vivo, Echinochloa crus-galli
Outline: as §2

blackgrass = experiment: Test A postemergence herbicide test; assay type: in vivo, Alopecurus myosuroides
Outline: (§3)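 Injury was rated visually about 10 days after treatment on a 0 (no effect) to 100 (complete control) scale, compared with untreated plants. Test chemicals were sprayed postemergence onto greenhouse plants 2–10 cm high at one to two leaves, grown in a loam–sand blend.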

ragweed = experiment: Test A pre-/postemergence herbicide test; assay type: in vivo, Ambrosia elatior
Outline: as §2

wheat = experiment: Test A pre-/postemergence herbicide test; assay type: in vivo, Triticum aestivum; conditions: Postemergence
Outline: as §2

corn = experiment: Test A pre-/postemergence herbicide test; assay type: in vivo, Zea mays; conditions: Postemergence
Outline: as §2

kochia = experiment: Test A pre-/postemergence herbicide test; assay type: in vivo, Kochia scoparia
Outline: as §2

sedge, umbrella = experiment: Test B flooded paddy test; assay type: in vivo, Cyperus difformis; conditions: 500 g ai/ha, Flood; scale of 0 to 100 where 0 is no effect and 100 is complete control
Outline: as §1

pigweed = experiment: Test A pre-/postemergence herbicide test; assay type: in vivo, Amaranthus retroflexus
Outline: as §2

galium = experiment: Test A postemergence herbicide test; assay type: in vivo, Galium aparine
Outline: as §3

[3] = Postemergence, 125 g ai/ha, visual rating on 0 to 100 scale (0 no effect, 100 complete control), approx. 10 days
[4] = Postemergence, 500 g ai/ha, 0 to 100 scale (0 no effect, 100 complete control)
[5] = Preemergence, 125 g ai/ha, 0 to 100 scale where 0 is no effect and 100 is complete control
[6] = Preemergence, 500 g ai/ha, visual rating on 0 to 100 scale (0 no effect, 100 complete control)
[7] = 125 g ai/ha, visual rating on 0 to 100 scale (0 no effect, 100 complete control), approx. 10 days
[8] = 500 g ai/ha, 0 to 100 scale (0 no effect, 100 complete control)

For `O=C1NCC(c2cccc(C(F)(F)F)c2)C1C(=O)Nc1cc(F)ccc1F` (stereo not drawn) [Compound 314], the “Plant response rating, Rice” value (rice) was 15, the “Plant response rating, Barnyardgrass” value (barnyardgrass [1]) was 25 and the “Plant response rating, Ryegrass, Italian” value (ryegrass, Italian; [3]) was 0. The “Plant response rating, Ryegrass, Italian” value (ryegrass, Italian; [4]) was 0, the “Plant response rating, Ryegrass, Italian” value (ryegrass, Italian; [5]) was 0 and the “Ryegrass, Italian plant response rating” value (ryegrass, Italian; [6]) was 0. For the same compound, the “Plant response rating, Foxtail, Giant” value (giant foxtail; [3]) was 60, the “Plant response rating, Foxtail, Giant” value (giant foxtail; [4]) was 80 and the “Plant response rating, Foxtail, Giant” value (giant foxtail; [5]) was 30. For the same compound, the “Foxtail, Giant plant response rating” value (giant foxtail; [6]) was 90, the “Plant response rating, Ducksalad” value (ducksalad) was 40 and the “Plant response rating, Barnyardgrass” value (barnyardgrass [2]; [3]) was 30. For the same compound, the “Plant response rating, Barnyardgrass” value (barnyardgrass [2]; [4]) was 80, the “Plant response rating, Barnyardgrass” value (barnyardgrass [2]; [5]) was 20 and the “Barnyardgrass plant response rating” value (barnyardgrass [2]; [6]) was 80. For the same compound, the “Plant response rating, Blackgrass” value (blackgrass; [7]) was 0, the “Plant response rating, Blackgrass” value (blackgrass; [8]) was 0 and the “Plant response rating, Ragweed” value (ragweed; [3]) was 0. For the same compound, the “Plant response rating, Ragweed” value (ragweed; [4]) was 0, the “Plant response rating, Ragweed” value (ragweed; [5]) was 0 and the “Ragweed plant response rating” value (ragweed; [6]) was 0. The “Plant response rating, Wheat” value (wheat; [7]) was 0, the “Plant response rating, Wheat” value (wheat; [8]) was 0 and the “Plant response rating, Corn” value (corn; [7]) was 0. The “Plant response rating, Corn” value (corn; [8]) was 0, the “Plant response rating, Kochia” value (kochia; [3]) was 0 and the “Plant response rating, Kochia” value (kochia; [4]) was 0. For the same compound, the “Plant response rating, Kochia” value (kochia; [5]) was 0, the “Kochia plant response rating” value (kochia; [6]) was 0 and the “Plant response rating, Sedge, Umbrella” value (sedge, umbrella) was 0. For the same compound, the “Plant response rating, Pigweed” value (pigweed; [3]) was 0, the “Plant response rating, Pigweed” value (pigweed; [4]) was 0 and the “Plant response rating, Pigweed” value (pigweed; [5]) was 0. For the same compound, the “Pigweed plant response rating” value (pigweed; [6]) was 0, the “Plant response rating, Galium” value (galium; [7]) was 0 and the “Plant response rating, Galium” value (galium; [8]) was 0.
In the case of `CC(C)c1cccc(C2CNC(=O)C2C(=O)Nc2ccccc2C(F)(F)F)c1` (stereo not drawn) [Compound 320], the “Plant response rating, Rice” value (rice) is reported as 0, the “Plant response rating, Barnyardgrass” value (barnyardgrass [1]) is reported as 45 and the “Plant response rating, Ryegrass, Italian” value (ryegrass, Italian; [3]) is reported as 0. For the same compound, the “Plant response rating, Ryegrass, Italian” value (ryegrass, Italian; [4]) was 30, the “Plant response rating, Ryegrass, Italian” value (ryegrass, Italian; [5]) was 20 and the “Ryegrass, Italian plant response rating” value (ryegrass, Italian; [6]) was 50. The “Plant response rating, Foxtail, Giant” value (giant foxtail; [3]) was 30, the “Plant response rating, Foxtail, Giant” value (giant foxtail; [4]) was 70 and the “Plant response rating, Foxtail, Giant” value (giant foxtail; [5]) was 30. The “Foxtail, Giant plant response rating” value (giant foxtail; [6]) was 90, the “Plant response rating, Ducksalad” value (ducksalad) was 100 and the “Plant response rating, Barnyardgrass” value (barnyardgrass [2]; [3]) was 50. The “Plant response rating, Barnyardgrass” value (barnyardgrass [2]; [4]) was 90, the “Plant response rating, Barnyardgrass” value (barnyardgrass [2]; [5]) was 20 and the “Barnyardgrass plant response rating” value (barnyardgrass [2]; [6]) was 80. For the same compound, the “Plant response rating, Blackgrass” value (blackgrass; [7]) was 0, the “Plant response rating, Blackgrass” value (blackgrass; [8]) was 20 and the “Plant response rating, Ragweed” value (ragweed; [3]) was 0. For the same compound, the “Plant response rating, Ragweed” value (ragweed; [4]) was 30, the “Plant response rating, Ragweed” value (ragweed; [5]) was 0 and the “Ragweed plant response rating” value (ragweed; [6]) was 30. The “Plant response rating, Wheat” value (wheat; [7]) was 0, the “Plant response rating, Wheat” value (wheat; [8]) was 0 and the “Plant response rating, Corn” value (corn; [7]) was 0. For the same compound, the “Plant response rating, Corn” value (corn; [8]) was 0, the “Plant response rating, Kochia” value (kochia; [3]) was 20 and the “Plant response rating, Kochia” value (kochia; [4]) was 20. For the same compound, the “Plant response rating, Kochia” value (kochia; [5]) was 0, the “Kochia plant response rating” value (kochia; [6]) was 20 and the “Plant response rating, Sedge, Umbrella” value (sedge, umbrella) was 0. For the same compound, the “Plant response rating, Pigweed” value (pigweed; [3]) was 0, the “Plant response rating, Pigweed” value (pigweed; [4]) was 0 and the “Plant response rating, Pigweed” value (pigweed; [5]) was 0. For the same compound, the “Pigweed plant response rating” value (pigweed; [6]) was 0, the “Plant response rating, Galium” value (galium; [7]) was 0 and the “Plant response rating, Galium” value (galium; [8]) was 0.
For `O=C1NCC(c2ccc(SC(F)(F)F)cc2)C1C(=O)Nc1ccccc1F` (stereo not drawn) [Compound 321], the “Plant response rating, Rice” value (rice) was 15, the “Plant response rating, Barnyardgrass” value (barnyardgrass [1]) was 20 and the “Plant response rating, Ryegrass, Italian” value (ryegrass, Italian; [3]) was 0. For the same compound, the “Plant response rating, Ryegrass, Italian” value (ryegrass, Italian; [4]) was 0, the “Plant response rating, Ryegrass, Italian” value (ryegrass, Italian; [5]) was 0 and the “Ryegrass, Italian plant response rating” value (ryegrass, Italian; [6]) was 0. The “Plant response rating, Foxtail, Giant” value (giant foxtail; [3]) was 0, the “Plant response rating, Foxtail, Giant” value (giant foxtail; [4]) was 50 and the “Plant response rating, Foxtail, Giant” value (giant foxtail; [5]) was 0. For the same compound, the “Foxtail, Giant plant response rating” value (giant foxtail; [6]) was 50, the “Plant response rating, Ducksalad” value (ducksalad) was 40 and the “Plant response rating, Barnyardgrass” value (barnyardgrass [2]; [3]) was 0. The “Plant response rating, Barnyardgrass” value (barnyardgrass [2]; [4]) was 50, the “Plant response rating, Barnyardgrass” value (barnyardgrass [2]; [5]) was 0 and the “Barnyardgrass plant response rating” value (barnyardgrass [2]; [6]) was 30. For the same compound, the “Plant response rating, Blackgrass” value (blackgrass; [7]) was 0, the “Plant response rating, Blackgrass” value (blackgrass; [8]) was 0 and the “Plant response rating, Ragweed” value (ragweed; [3]) was 0. The “Plant response rating, Ragweed” value (ragweed; [4]) was 0, the “Plant response rating, Ragweed” value (ragweed; [5]) was 0 and the “Ragweed plant response rating” value (ragweed; [6]) was 0. The “Plant response rating, Wheat” value (wheat; [7]) was 0, the “Plant response rating, Wheat” value (wheat; [8]) was 0 and the “Plant response rating, Corn” value (corn; [7]) was 0. The “Plant response rating, Corn” value (corn; [8]) was 0, the “Plant response rating, Kochia” value (kochia; [3]) was 0 and the “Plant response rating, Kochia” value (kochia; [4]) was 0. The “Plant response rating, Kochia” value (kochia; [5]) was 0, the “Kochia plant response rating” value (kochia; [6]) was 0 and the “Plant response rating, Sedge, Umbrella” value (sedge, umbrella) was 0. The “Plant response rating, Pigweed” value (pigweed; [3]) was 0, the “Plant response rating, Pigweed” value (pigweed; [4]) was 0 and the “Plant response rating, Pigweed” value (pigweed; [5]) was 0. The “Pigweed plant response rating” value (pigweed; [6]) was 0, the “Plant response rating, Galium” value (galium; [7]) was 0 and the “Plant response rating, Galium” value (galium; [8]) was 0.
In the case of `O=C1NCC(c2ccc(SC(F)(F)F)cc2)C1C(=O)Nc1ccc(F)c(F)c1F` (stereo not drawn) [Compound 322], the “Plant response rating, Rice” value (rice) is reported as 0, the “Plant response rating, Barnyardgrass” value (barnyardgrass [1]) is reported as 0 and the “Plant response rating, Ryegrass, Italian” value (ryegrass, Italian; [3]) is reported as 0. For the same compound, the “Plant response rating, Ryegrass, Italian” value (ryegrass, Italian; [4]) was 0, the “Plant response rating, Ryegrass, Italian” value (ryegrass, Italian; [5]) was 0 and the “Ryegrass, Italian plant response rating” value (ryegrass, Italian; [6]) was 0. For the same compound, the “Plant response rating, Foxtail, Giant” value (giant foxtail; [3]) was 0, the “Plant response rating, Foxtail, Giant” value (giant foxtail; [4]) was 60 and the “Plant response rating, Foxtail, Giant” value (giant foxtail; [5]) was 0. For the same compound, the “Foxtail, Giant plant response rating” value (giant foxtail; [6]) was 70, the “Plant response rating, Ducksalad” value (ducksalad) was 100 and the “Plant response rating, Barnyardgrass” value (barnyardgrass [2]; [3]) was 0. The “Plant response rating, Barnyardgrass” value (barnyardgrass [2]; [4]) was 60, the “Plant response rating, Barnyardgrass” value (barnyardgrass [2]; [5]) was 0 and the “Barnyardgrass plant response rating” value (barnyardgrass [2]; [6]) was 40. The “Plant response rating, Blackgrass” value (blackgrass; [7]) was 0, the “Plant response rating, Blackgrass” value (blackgrass; [8]) was 0 and the “Plant response rating, Ragweed” value (ragweed; [3]) was 0. For the same compound, the “Plant response rating, Ragweed” value (ragweed; [4]) was 0, the “Plant response rating, Ragweed” value (ragweed; [5]) was 0 and the “Ragweed plant response rating” value (ragweed; [6]) was 0. The “Plant response rating, Wheat” value (wheat; [7]) was 0, the “Plant response rating, Wheat” value (wheat; [8]) was 0 and the “Plant response rating, Corn” value (corn; [7]) was 0. The “Plant response rating, Corn” value (corn; [8]) was 20, the “Plant response rating, Kochia” value (kochia; [3]) was 0 and the “Plant response rating, Kochia” value (kochia; [4]) was 0. For the same compound, the “Plant response rating, Kochia” value (kochia; [5]) was 0, the “Kochia plant response rating” value (kochia; [6]) was 0 and the “Plant response rating, Sedge, Umbrella” value (sedge, umbrella) was 0. For the same compound, the “Plant response rating, Pigweed” value (pigweed; [3]) was 0, the “Plant response rating, Pigweed” value (pigweed; [4]) was 0 and the “Plant response rating, Pigweed” value (pigweed; [5]) was 0. The “Pigweed plant response rating” value (pigweed; [6]) was 0, the “Plant response rating, Galium” value (galium; [7]) was 0 and the “Plant response rating, Galium” value (galium; [8]) was 0.
